Columns and labels:
[1] = target: T1, NLRP3 inflammasome (Homo sapiens, UniProt Q96P20); experiment: IL-1β TR-FRET assay (THP-1 cells differentiated to macrophages with IFN-γ, LPS primed, ATP activated; HTRF); format: cell-based; details: THP-1 macrophages, 50 ng/mL LPS priming, compound 30 min, 20 mM ATP 2 hours
T1 construct: IL-1beta HTRF
Outline: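 THP-1 cells differentiated with 25 ng/mL IFN-γ for 24 h, primed with 50 ng/mL LPS in serum-free medium for 24 h, then treated with compounds for 30 min before 20 mM ATP activation for 2 h at 37 °C. Secreted IL-1β quantified by HTRF; IC50 from logistic fit of % inhibition.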

[2] = tested on: NF-κB pathway; experiment: TNF-α assay (THP-1 cells differentiated to macrophages with IFN-γ, NF-κB pathway activated with LPS; ELISA); format: cell-based, Human; details: compound 30 min, 50 ng/mL LPS 3 hours
Outline: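 THP-1 cells differentiated with 25 ng/mL IFN-γ for 24 h, then 30 min with compounds in serum-free medium. NF-κB activated with 50 ng/mL LPS, 3 h at 37 °C. Supernatant TNF-α by ELISA; IC50 from four-parameter logistic fit of % inhibition.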

[3] = Homo sapiens, THP-1, THP-1 macrophages

T1 sequence (Q96P20 whole entry): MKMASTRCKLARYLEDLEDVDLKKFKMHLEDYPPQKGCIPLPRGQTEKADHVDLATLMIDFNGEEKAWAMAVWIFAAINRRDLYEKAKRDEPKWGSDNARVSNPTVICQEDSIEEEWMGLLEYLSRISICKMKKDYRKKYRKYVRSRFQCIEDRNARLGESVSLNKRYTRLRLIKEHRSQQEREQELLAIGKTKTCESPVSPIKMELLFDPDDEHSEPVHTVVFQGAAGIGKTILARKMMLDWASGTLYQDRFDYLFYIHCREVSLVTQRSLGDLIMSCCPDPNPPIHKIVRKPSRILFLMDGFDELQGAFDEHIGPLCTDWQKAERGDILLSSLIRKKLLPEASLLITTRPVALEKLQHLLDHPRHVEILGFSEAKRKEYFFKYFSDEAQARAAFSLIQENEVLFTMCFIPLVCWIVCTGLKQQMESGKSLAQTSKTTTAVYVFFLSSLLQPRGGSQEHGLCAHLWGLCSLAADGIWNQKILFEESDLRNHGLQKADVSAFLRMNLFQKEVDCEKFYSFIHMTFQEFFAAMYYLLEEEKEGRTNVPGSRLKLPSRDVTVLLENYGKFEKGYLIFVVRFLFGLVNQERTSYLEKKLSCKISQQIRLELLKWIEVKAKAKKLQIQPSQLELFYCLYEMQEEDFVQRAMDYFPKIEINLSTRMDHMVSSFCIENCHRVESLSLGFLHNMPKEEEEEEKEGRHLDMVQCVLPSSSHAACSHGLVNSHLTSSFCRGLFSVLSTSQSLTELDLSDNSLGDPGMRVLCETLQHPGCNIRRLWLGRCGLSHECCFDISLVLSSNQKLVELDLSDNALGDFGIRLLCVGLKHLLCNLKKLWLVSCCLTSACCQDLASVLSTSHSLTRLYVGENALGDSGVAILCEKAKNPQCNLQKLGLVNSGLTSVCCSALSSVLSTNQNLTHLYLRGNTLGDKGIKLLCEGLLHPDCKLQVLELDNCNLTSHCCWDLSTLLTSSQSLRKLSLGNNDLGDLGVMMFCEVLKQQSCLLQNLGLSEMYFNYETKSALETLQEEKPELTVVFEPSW

IC50 [1] [µM] | IC50 [2, 3] [µM] | IC50 ([2]; THP-1 macrophages) [µM] | SMILES
0.037 | > 30 | – | Cc1cc(O)c(-n2cc3sc(N[C@@H]4C[C@@H](F)CN(C)C4)nc3n2)c(Cl)c1 [Example 11, 3-chloro-2-(5-{[(3R,5R)-5-fluoro-1-methylpiperidin-3-yl]amino}-2H-pyrazolo[3,4-d][1,3]thiazol-2-yl)-5-methylphenol]
0.0036 | > 10 | – | Cc1cc(F)cc(O)c1-n1cc2sc(N[C@@H]3CCCN(C4CC4)C3)nc2n1 [Example 12, 2-(5-{[(3R)-1-cyclopropylpiperidin-3-yl]amino}-2H-pyrazolo[3,4-d][1,3]thiazol-2-yl)-5-fluoro-3-methylphenol]
0.025 | > 30 | – | Cc1cc(C(F)F)cc(O)c1-n1cc2sc(N[C@@H]3C[C@@H](F)CN(C)C3)nc2n1 [Example 13, 5-(difluoromethyl)-2-(5-{[(3R,5R)-5-fluoro-1-methylpiperidin-3-yl]amino}-2H-pyrazolo[3,4-d][1,3]thiazol-2-yl)-3-methylphenol]
0.011 | > 30 | – | CCN1C[C@H](F)C[C@@H](Nc2nc3nn(-c4c(C)cc(C(F)F)cc4O)cc3s2)C1 [Example 16, 5-(difluoromethyl)-2-(5-{[(3R,5R)-1-ethyl-5-fluoropiperidin-3-yl]amino}-2H-pyrazolo[3,4-d][1,3]thiazol-2-yl)-3-methylphenol]
0.11 | > 30 | – | CN1C[C@H](F)C[C@@H](Nc2nc3nn(-c4c(O)cc(F)cc4Cl)cc3s2)C1 [Example 17, 3-chloro-5-fluoro-2-(5-{[(3R,5R)-5-fluoro-1-methylpiperidin-3-yl]amino}-2H-pyrazolo[3,4-d][1,3]thi-azol-2-yl)phenol]
0.011 | > 30 | – | Oc1cc(F)cc(Cl)c1-n1cc2sc(N[C@@H]3CCCN(C4CC4)C3)nc2n1 [Example 18, 3-chloro-2-(5-{[(3R)-1-cyclopropyl-piperidin-3-yl]amino}-2H-pyrazolo[3,4-d][1,3]thiazol-2-yl)-5-fluorophenol]
5.4 | > 30 | – | CO[C@H]1C[C@@H](Nc2nc3nn(-c4c(C)cc(C)cc4O)cc3s2)CN(C)C1 [Example 19, 2-(5-{[(3R,5S)-5-methoxy-1-methylpiperidin-3-yl]amino}-2H-pyrazolo[3,4-d][1,3]thiazol-2-yl)-3,5-dimethylphenol]
0.0092 | > 30 | – | CCc1cc(C)cc(O)c1-n1cc2sc(N[C@@H]3C[C@@H](F)CN(C)C3)nc2n1 [Example 20, 3-ethyl-2-(5-{[(3R,5R)-5-fluoro-1-methylpiperidin-3-yl]amino}-2H-pyrazolo[3,4-d][1,3]thiazol-2-yl)-5-methylphenol]
0.016 | > 10 | – | CCN1C[C@H](F)C[C@@H](Nc2nc3nn(-c4c(O)cc(F)cc4C(F)F)cc3s2)C1 [Example 24, 3-(difluoromethyl)-2-(5-{[(3R,5R)-1-ethyl-5-fluoropiperidin-3-yl]amino}-2H-pyrazolo[3,4-d][1,3]thiazol-2-yl)-5-fluorophenol]
0.35 | > 10 | – | Cc1cc(C)c(-n2cc3sc(N[C@H]4CC[C@H](O)CC4)nc3n2)c(O)c1 [Example 25, 2-{5-[(trans-4-hydroxycyclo-hexyl)amino]-2H-pyrazolo[3,4-d][1,3]thiazol-2-yl}-3,5-dimethylphenol]
0.83 | > 10 | – | Cc1cc(C)c(-n2cc3sc(N[C@H]4CC[C@@H](O)CC4)nc3n2)c(O)c1 [Example 26, 2-{5-[(cis-4-hydroxycyclohexyl)amino]-2H-pyrazolo[3,4-d][1,3]thiazol-2-yl}-3,5-dimethylphenol]
0.62 | 6.3 | – | Cc1cc(C)c(-n2cc3sc(N[C@@H]4CCCN(C(=O)OCC(Cl)(Cl)Cl)C4)nc3n2)c(O)c1 [Example 27, 2,2,2-trichloroethyl (3R)-3-{[2-(2-hydroxy-4,6-dimethylphenyl)-2H-pyrazolo[3,4-d][1,3]thiazol-5-yl]amino}piperidine-1-carboxylate]
0.48 | > 10 | – | Cc1cc(C)c(-n2cc3sc(NC4CCCC4O)nc3n2)c(O)c1 (stereo not drawn) [Example 28, 2-{5-[(2-hydroxycyclopentyl)amino]-2H-pyrazolo[3,4-d][1,3]thiazol-2-yl}-3,5-dimethylphenol]
0.54 | > 10 | – | Cc1cc(C)c(-n2cc3sc(NC4CCCC(O)C4)nc3n2)c(O)c1 (stereo not drawn) [Example 29, 2-{5-[(3-hydroxycyclohexyl)amino]-2H-pyrazolo[3,4-d][1,3]thiazol-2-yl}-3,5-dimethylphenol]
0.83 | > 10 | – | Cc1cc(C)c(-n2cc3sc(NC4CC5(CC(O)C5)C4)nc3n2)c(O)c1 (stereo not drawn) [Example 30, 6-{[2-(2-hydroxy-4,6-dimethylphenyl)-2H-pyrazolo[3,4-d][1,3]thiazol-5-yl]amino}spiro[3.3]heptan-2-ol]
0.65 | > 30 | – | Cc1cc(C)c(-n2cc3sc(N[C@H]4C[C@@](C)(O)C4)nc3n2)c(O)c1 [Example 31, 2-{5-[(cis-3-hydroxy-3-methylcyclobutyl)amino]-2H-pyrazolo[3,4-d][1,3]thiazol-2-yl}-3,5-dimethylphenyl]
0.68 | > 10 | – | Cc1cc(C)c(-n2cc3sc(N[C@H]4C[C@](C)(O)C4)nc3n2)c(O)c1 [Example 32, 2-{5-[(trans-3-hydroxy-3-methylcyclobutyl)amino]-2H-pyrazolo[3,4-d][1,3]thiazol-2-yl}-3,5-dimethylphenol]
1.5 | > 10 | – | Cc1cc(C)c(-n2cc3sc(N[C@@H]4C[C@H](C(F)F)CN(C)C4)nc3n2)c(O)c1 [Example 33, 2-(5-{[(3R,5S)-5-(difluoromethyl)-1-methylpiperidin-3-yl]amino}-2H-pyrazolo[3,4-d][1,3]thiazol-2-yl)-3,5-dimethylphenol]
0.15 | > 10 | – | Cc1cc(C)c(-n2cc3sc(NC[C@@H](C)O)nc3n2)c(O)c1 [Example 34, 2-(5-{[(2R)-2-hydroxypropyl]amino}-2H-pyrazolo [3,4-d][1,3]thiazol-2-yl)-3,5-dimethylphenol]
0.068 | > 10 | – | Cc1cc(C)c(-n2cc3sc(N[C@@H]4CCCN(CC(F)F)C4)nc3n2)c(O)c1 [Example 35, 2-(5-{[(3R)-1-(2,2-difluoroethyl)piperidin-3-yl]amino}-2H-pyrazolo[3,4-d][1,3]thiazol-2-yl)-3,5-dimethylphenol]
0.034 | > 30 | – | COCCN1CCC[C@@H](Nc2nc3nn(-c4c(C)cc(C)cc4O)cc3s2)C1 [Example 36, 2-(5-{[(3R)-1-(2-methoxyethyl)piperidin-3-yl]amino}-2H-pyrazolo[3,4-d][1,3]thiazol-2-yl)-3,5-dimethylphenol]
0.12 | > 30 | – | COCCN(c1nc2nn(-c3c(C)cc(C)cc3O)cc2s1)[C@@H]1CCCNC1 [Example 37, 2-(5-{(2-methoxyethyl)[(3R)-piperidin-3-yl]amino}-2H-pyrazolo[3,4-d][1,3]thiazol-2-yl)-3,5-dimethylphenol]
0.44 | > 30 | – | CC(=O)NCCNc1nc2nn(-c3c(C)cc(C)cc3O)cc2s1 [Example 38, N-(2-{[2-(2-hydroxy-4,6-dimethylphenyl)-2H-pyrazolo[3,4-d][1,3]thiazol-5-yl]amino}ethyl)acetamide]
0.39 | > 30 | – | CC(=O)NCCCCNc1nc2nn(-c3c(C)cc(C)cc3O)cc2s1 [Example 39]
1.8 | > 30 | – | CO[C@H]1CN(C)C[C@@H]1Nc1nc2nn(-c3c(C)cc(C)cc3O)cc2s1 [Example 40, 2-(5-{[(3S,4S)-4-methoxy-1-methylpyrrolidin-3-yl]amino}-2H-pyrazolo[3,4-d][1,3]thiazol-2-yl)-3,5-dimethylphenol]
1.5 | > 10 | – | Cc1cc(C)c(-n2cc3sc(N[C@@H]4C[C@@H](C(F)F)CN(C)C4)nc3n2)c(O)c1 [Example 41, 2-(5-{[(3R,5R)-5-(difluoromethyl)-1-methylpiperidin-3-yl]amino}-2H-pyrazolo[3,4-d][1,3]thiazol-2-yl)-3,5-dimethylphenol]
0.014 | > 30 | – | Cc1cc(C)c(-n2cc3sc(N[C@@H]4CCCN(CCF)C4)nc3n2)c(O)c1 [Example 42, 2-(5-{[(3R)-1-(2-fluoroethyl)piperidin-3-yl]amino}-2H-pyrazolo[3,4-d][1,3]thiazol-2-yl)-3,5-dimethylphenol]
0.028 | > 30 | – | COc1cc(C)c(-n2cc3sc(N[C@@H]4C[C@@H](F)CN(C)C4)nc3n2)c(O)c1 [Example 43, 2-(5-{[(3R,5R)-5-fluoro-1-methylpiperidin-3-yl]amino}-2H-pyrazolo[3,4-d][1,3]thiazol-2-yl)-5-methoxy-3-methylphenol]
0.24 | > 10 | – | Cc1cc(C)c(-n2cc3sc(N[C@@H]4CC[C@@H](O)C4)nc3n2)c(O)c1 [Example 44, 2-(5-{[(1R,3R)-3-hydroxycyclopentyl]amino}-2H-pyrazolo[3,4-d][1,3]thiazol-2-yl)-3,5-dimethyphenol or 2-(5-{[(1S,3S)-3-hydroxycyclopentyl]amino}-2H-pyrazolo[3,4-d][1,3]thiazol-2-yl)-3,5-dimethylphenol (tR1)]
0.33 | – | > 10 | Cc1cc(C)c(-n2cc3sc(N[C@@H]4CC[C@@H](O)C4)nc3n2)c(O)c1 [Example 45, 2-(5-{[(1R,3R)-3-hydroxycyclopentyl]amino}-2H-pyrazolo[3,4-d][1,3]thiazol-2-yl)-3,5-dimethylphenol or 2-(5-{[(1S,3S)-3-hydroxycyclopentyl]amino}-2H-pyrazolo[3,4-d][1,3]thiazol-2-yl)-3,5-dimethylphenol (tR2)]

Source: patent publication US20260365671A1, “HETEROCYCLIC COMPOUND” (Takeda Pharmaceutical Company Limited, priority 2022, published 2026)
